Experimental data published in patent US20010055590A1, “Method for enhancing myoblast migration and invasion in the context of gene therapy” (priority 1999, published 2001).

Legend:
[1] = tested on: human myoblasts; test: In vitro human myoblast invasion of Matrigel; format: cell-based; conditions: 24 hour time point
Experimental: Mouse myoblasts were previously isolated from hind limb muscles of 4-6 week old severe combined immunodeficient (SCID) mice and clonally purified from contaminating fibroblasts (Yao et al. “Primary myoblast-mediated gene: transfer: persistent expression of human factor IX in mice” Gene Therapy 1:99-107, 1994). Myoblasts (approximately 1×10^6 cells) were plated on 6 cm tissue culture plates coated with 0.5% gelatin (Sigma, St. Louis, Mo.) and grown in growth medium consisting of Dulbecco's Modified Eagle Medium (DMEM) (Gibco BRL, Gaithersburg Md.) supplemented with 20% fetal bovine serum (FBS; Gibco) and 0.5% chick embryo extract (CEE; Gibco). All animal studies were carried out following the institutional guidelines for ethical animal use. Human myoblasts were isolated using trypsin digestion from abdominal wall or chest wall muscle biopsies, and surgery. […] Myoblast migration and invasion were examined using a commercially available in vitro cell migration and invasion assay kit (Biocoat, Becton Dickinson, Franklin Lakes, N.J.) as described by Albini et al. (A rapid in vitro assay for quantitating the invasive potential of tumor cells Cancer Res 47:3239-3245, 1987). […] The number of cells per field was counted in 10 randomly selected fields and averaged for each condition. […]

[2] = tested on: MMP-2; test: Gelatin zymography of human myoblasts, MMP-2; format: cell-based
Experimental: Gelatin zymography for assaying MMPs was carried out as previously described (Guerin and Holland “Synthesis and secretion of matrix-degrading metalloproteinases by human skeletal muscle satellite cells” Devel. Dynamics 202:91-99,1995) with minor modifications. Briefly, myoblasts were grown in 6 cm tissue culture plates to approximately 70% confluence, then rinsed three times with serumfree DMEM and incubated for 3 hours in DMEM containing 0.2% BSA to eliminate the effects of serum. Growth factors were added and cells were incubated for 24 hours. Culture medium was then collected, centrifuged to pellet detached cells, and concentrated ten-to twenty-fold using the Centricon-10 (Amicon, Beverly, Mass.) system. The protein concentration of the supernatants was determined using the Bio-Rad protein microassay system with BSA used as the standard. Samples were stored at −70° C. until use. For gelatin zymography, aliquots (10 μg as the total protein per sample) were electrophoresed at constant voltage on a 10% polyacrylamide gel containing 2 mg/ml gelatin. […] Proteinase activity was quantified by densitometric scanning of bands using a Bio-Rad Gel Doc 1000 video camera imaging system (Bio Rad, Hercules, Calif.). […]

human serum fibronectin
stimulation of human myoblast invasion of Matrigel over the BSA control [1]: 2.3 fold | MMP-2 activation [2]: significant increase in MMP-2 activation
